Reference: patent US9897592B2, “Methods for identifying arthropod repellents and attractants, and compounds and compositions identified by such methods” (The Regents of the University of California, priority 2013, dated 2018)
Counter-ions that a name gives are not always drawn.

Tested on: cpA neuron
Test: Single-sensillum recording: activation of cpA neuron by odorants
Format: cell-based, Aedes aegypti
Settings: for Activation (spikes s^−1): A. aegypti cpA, 0.5-s pulses, odorants 10^−2 in paraffin oil or water, solvent response subtracted; for Activation (spikes s−1): cpA neuron, 20 compounds from the top 200 SVM ligand predictions, negative values = inhibition, N = 4
Procedure: FIG. 3b depicts representative traces and mean responses of the A. aegypti cpA neuron to 0.5-s pulses of 138 predicted compounds screened using single-sensillum recordings, in which odorants were diluted to 10^−2 in paraffin oil or water, and responses to solvent have been subtracted, n=2-6, and error bars are s.d.
FIG. 5f is a bar graph illustrating the mean responses of the A. aegypti cpA neuron to 0.5-s pulses of 22 newly predicted compounds screened as in FIG. 3b, where salmon bars correspond to odorants found in human odor, odorants were diluted to 10^−2 in paraffin oil or water, and responses to solvent have been subtracted, and n=2-5.
Adult female A. aegypti (Linnaeus 1762) (Rockefeller strain) A. gambiae sensu stricto Giles 1902 (G3 strain), or C. quinquefasciatus Say 1823 were tested 3-12 days post-emergence with single-sensillum extracellular recordings. Chemicals were obtained from Sigma-Aldrich at the highest purity (typically >99%) and were dissolved in paraffin oil or water. […] Response to clean beads was subtracted from the results reported. Only sensilla with cpA activity of <20 spikes s^−1 to negative control were considered for analysis.
CpA-off and sham treated mosquitoes were pre-treated for 3 min in an upended 1 L glass dish in which 100 μl of fresh butyryl chloride (1%) or paraffin oil was allowed to vaporize for 10-20 min. The odor delivery system for different screens is shown in FIG. 7b; solvent responses during the same recording session were subtracted. Inhibition screen was tested. For the ultra-prolonged activator the 3-s stimulus was delivered from a 10 ml disposable pipette using a CS-55 stimulus controller (Syntech), CO2 was delivered, and responses to subsequent odor stimuli were calculated by subtracting baseline activity 1 s prior to each stimulus. When responses to repeated pulses of cyclopentanone and CO2 were compared, baseline activity between seconds 5 and 6 following each stimulus was subtracted. Spike counting was done manually or with Igor Pro6.2 (Wavemetrics) with the Neuromatic v2.00 macro (by Jason Rothman), and peak-to-peak spike amplitudes for FIG. 8 were analysed in Clampfit 10.3 (Molecular Devices).
From the large list of cpA receptor ligands predicted from Example 3 above, 138 compounds were selected based on desirable criteria for application such as smell, presence in natural sources, human safety profile, and cost to procure. These compounds were tested individually using single-sensillum electrophysiology on the cp sensillum of female A. aegypti, according to the procedure described in Example 1 above.

| Compound | Activation (spikes s^−1) | Activation (spikes s−1) |
| --- | --- | --- |
| CC(C)Cc1nccs1 [2-(2-methylpropyl)-1,3-thiazole] | 12.0 | – |
| CC(C)SCc1ccco1 [2-(propan-2-ylsulfanylmethyl)furan] | −0.5 | – |
| C[N+](C)(C)CC(=O)[O-] [2-(trimethylazaniumyl)acetate] | 2.5 | – |
| CC(C)OC=O [propan-2-yl formate] | – | 63.8 |
| O=Cc1cnc[nH]1 [1H-imidazole-5-carbaldehyde] | 2.5 | – |
| CC1OCCC1=O (stereo not drawn) [2-methyloxolan-3-one] | 58.4 | – |
| CC(=O)CC(C)(C)O [4-hydroxy-4-methylpentan-2-one] | 2.0 | – |
| CC(=O)c1ccc[nH]1 [1-(1H-pyrrol-2-yl)ethanone] | 1.5 | – |
| Cc1cscn1 [4-methyl-1,3-thiazole] | 111.8 | – |
| CC(N)C(=O)O (stereo not drawn) [2-aminopropanoic acid] | −1.5 | – |
| CCC(=O)OC [methyl propanoate] | 75.0 | – |
| CC(C)O [propan-2-ol] | – | 25.3 |
| CCCCCCC1CCCC(=O)O1 (stereo not drawn) [6-hexyloxan-2-one] | 1.5 | – |
| CC1CCC(=O)C1=O (stereo not drawn) [3-methylcyclopentane-1,2-dione] | 3.5 | – |
| CC(=O)CCC(=O)O [4-oxopentanoic acid] | 4.5 | – |
| CCC(N)C(=O)O (stereo not drawn) [2-aminobutanoic acid] | −3.0 | – |
| O=Cc1ccoc1 [furan-3-carbaldehyde] | 85.0 | – |
| OC1CCCCC1 [cyclohexanol] | 59.0 | – |
| C=CCSC [3-methylsulfanylprop-1-ene] | – | 52.8 |
| CSC [methylsulfanylmethane] | – | 99.3 |
| Cc1cccc(O)c1 [3-methylphenol] | 44.0 | – |
| CC(C)=CC(=O)O [3-methylbut-2-enoic acid] | 0.5 | – |

| Compound | Activation (spikes s^−1) | Activation (spikes s−1) |
| --- | --- | --- |
| C/C=C/C(=O)OCC [ethyl (E)-but-2-enoate] | 22.0 | – |
| CC(C)OC(=O)c1ccccc1 [propan-2-yl benzoate] | 6.0 | – |
| CC(C)CO [2-methylpropan-1-ol] | – | 95.0 |
| CC(=O)CC(=O)OCc1ccccc1 [benzyl 3-oxobutanoate] | −1.5 | – |
| CCOC1CCCO1 (stereo not drawn) [2-ethoxyoxolane] | 6.5 | – |
| CCCOC=O [propyl formate] | 58.0 | – |
| Cc1ccsc1 [3-methylthiophene] | – | 33.8 |
| C=CCCC(C)=O [hex-5-en-2-one] | 63.4 | – |
| CC/C=C/C=O [(E)-pent-2-enal] | −5.0 | – |
| CCCc1ccncc1 [4-propylpyridine] | 34.0 | – |
| CCc1cccnc1 [3-ethylpyridine] | 42.5 | – |
| O=COCc1ccccc1 [benzyl formate] | 8.0 | – |
| C=Cc1scnc1C [5-ethenyl-4-methyl-1,3-thiazole] | 50.5 | – |
| Cn1cccc1 [1-methylpyrrole] | 54.2 | – |
| CCCCCO [pentan-1-ol] | 50.5 | – |
| Cc1nccnc1CC(C)C [2-methyl-3-(2-methylpropyl)pyrazine] | 1.0 | – |
| CC(S)C(C)S (stereo not drawn) [butane-2,3-dithiol] | 25.0 | – |
| CC1CCC(=O)O1 (stereo not drawn) [5-methyloxolan-2-one] | 10.0 | – |
| CCCS [propane-1-thiol] | 75.0 | – |
| CC(C)[C@H](N)C(=O)O [(2S)-2-amino-3-methylbutanoic acid] | 3.5 | – |
| CCc1cccs1 [2-ethylthiophene] | – | 9.3 |
| CCC(=O)C(=O)O [2-oxobutanoic acid] | 7.0 | – |

| Compound | Activation (spikes s^−1) | Activation (spikes s−1) |
| --- | --- | --- |
| CCOC=O [ethyl formate] | 34.5 | – |
| CC1=C(O)C(=O)OC1C (stereo not drawn) [4-hydroxy-2,3-dimethyl-2H-furan-5-one] | 9.0 | – |
| CCCc1ccc(O)cc1 [4-propylphenol] | −9.0 | – |
| CCCC(=O)OC [methyl butanoate] | 44.5 | – |
| O=C1CNCCN1 [piperazin-2-one] | −3.2 | – |
| CCC(C)CC(=O)O (stereo not drawn) [3-methylpentanoic acid] | 3.7 | – |
| CC1=CCC(=O)O1 [5-methyl-3H-furan-2-one] | 56.0 | – |
| Cc1ccc(C)s1 [2,5-dimethylthiophene] | – | 0.3 |
| COc1nccnc1C [2-methoxy-3-methylpyrazine] | −27.5 | – |
| CC(C)=CC1CC(C)CCO1 (stereo not drawn) [4-methyl-2-(2-methylprop-1-enyl)oxane] | 1.5 | – |
| c1cc[nH]c1 [1H-pyrrole] | 89.8 | – |
| CC(C)CC(C)O (stereo not drawn) [4-methylpentan-2-ol] | 24.0 | – |
| CC(C)COC=O [2-methylpropyl formate] | 48.0 | – |
| CC/C=C\CCCCCO [(Z)-non-6-en-1-ol] | 2.0 | – |
| C=CCOC(=O)CCC [prop-2-enyl butanoate] | 16.0 | – |
| COC(C)=O [methyl acetate] | −50.5 | – |
| CC1CC(=O)C(=O)C1C (stereo not drawn) [3,4-dimethylcyclopentane-1,2-dione] | 1.5 | – |
| CCC=O [propanal] | – | −33.8 |
| CC1=CC(O)CCC1 (stereo not drawn) [3-methylcyclohex-2-en-1-ol] | 23.0 | – |
| CCC(O)c1ccccc1 (stereo not drawn) [1-phenylpropan-1-ol] | −3.5 | – |
| CCCO [propan-1-ol] | – | 60.8 |
| CCOC(C)=O [ethyl acetate] | 62.4 | – |

| Compound | Activation (spikes s^−1) | Activation (spikes s−1) |
| --- | --- | --- |
| CCCC(=O)c1ccccc1 [1-phenylbutan-1-one] | 1.5 | – |
| c1ccnnc1 [pyridazine] | 2.5 | – |
| O=C1CCCN1 [pyrrolidin-2-one] | 0.0 | – |
| c1cnc2c(n1)CCCC2 [5,6,7,8-tetrahydroquinoxaline] | −5.5 | – |
| CC1CCCC(C)N1 (stereo not drawn) [2,6-dimethylpiperidine] | 2.5 | – |
| CC(C)CC(=O)OCCc1ccccc1 [2-phenylethyl 3-methylbutanoate] | 4.5 | – |
| COCc1ccccc1 [methoxymethylbenzene] | 12.0 | – |
| Cc1cc(O)cc(O)c1 [5-methylbenzene-1,3-diol] | 0.5 | – |
| CC(=O)C=C(C)C [4-methylpent-3-en-2-one] | 34.0 | – |
| COC(=O)OC [dimethyl carbonate] | 73.6 | – |
| CCc1ccc(C=O)cc1 [4-ethylbenzaldehyde] | 2.5 | – |
| CCCCCc1ccccn1 [2-pentylpyridine] | −6.5 | – |
| C1CCCC1 [cyclopentane] | – | 41.8 |
| CCC(C)c1nccnc1OC (stereo not drawn) [2-butan-2-yl-3-methoxypyrazine] | −10.5 | – |
| CCCC(=O)C(=O)O [2-oxopentanoic acid] | 0.0 | – |
| OCC1CCCC1 [cyclopentylmethanol] | 47.5 | – |
| CCC/C=C/CO [(E)-hex-2-en-1-ol] | 31.0 | – |
| CC(C)=CC=O [3-methylbut-2-enal] | 55.5 | – |
| c1cnc2cccnc2c1 [1,5-naphthyridine] | 1.5 | – |
| CCc1ccc[nH]1 [2-ethyl-1H-pyrrole] | 8.5 | – |
| C/C=C/C(=O)O [(E)-but-2-enoic acid] | −1.5 | – |
